Numbers after ± are expanded uncertainties.
Settings: 101.33 kPa, Liquid; for viscosity: Capillary tube (Ostwald / Ubbelohde) method; for mass density: Vibrating tube method

With `CN1CCCC1=O` [N-methylpyrrolidone] the viscosity (293.15 K) was 1.811 ± 0.074 mPa·s, the mass density (293.15 K) was 1032.31 ± 0.26 kg/m3 and the viscosity (298.15 K) was 1.667 ± 0.068 mPa·s. The mass density (298.15 K) was 1027.96 ± 0.25 kg/m3, the viscosity (303.15 K) was 1.543 ± 0.063 mPa·s and the mass density (303.15 K) was 1023.52 ± 0.25 kg/m3. It also gave a viscosity (308.15 K) of 1.437 ± 0.059 mPa·s, a mass density (308.15 K) of 1019.06 ± 0.25 kg/m3 and a viscosity (313.15 K) of 1.343 ± 0.055 mPa·s. For the same molecule, the mass density (313.15 K) was 1014.61 ± 0.24 kg/m3, the viscosity (318.15 K) was 1.258 ± 0.051 mPa·s and the mass density (318.15 K) was 1010.14 ± 0.24 kg/m3. For the same molecule, the viscosity (323.15 K) was 1.184 ± 0.048 mPa·s and the mass density (323.15 K) was 1005.68 ± 0.24 kg/m3.
Molecule `CCn1cc[n+](C)c1.O=S(=O)([N-]S(=O)(=O)C(F)(F)F)C(F)(F)F` has a viscosity (293.15 K) of 40.24 ± 1.6 mPa·s, a mass density (293.15 K) of 1523.28 ± 0.7 kg/m3 and a viscosity (298.15 K) of 33.36 ± 1.4 mPa·s. It also gave a mass density (298.15 K) of 1518.25 ± 0.69 kg/m3, a viscosity (303.15 K) of 28.1 ± 1.1 mPa·s and a mass density (303.15 K) of 1513.23 ± 0.69 kg/m3. The viscosity (308.15 K) was 23.93 ± 0.98 mPa·s, the mass density (308.15 K) was 1508.2 ± 0.69 kg/m3 and the viscosity (313.15 K) was 20.66 ± 0.85 mPa·s. For the same molecule, the mass density (313.15 K) was 1503.16 ± 0.68 kg/m3, the viscosity (318.15 K) was 17.98 ± 0.73 mPa·s and the mass density (318.15 K) was 1498.19 ± 0.68 kg/m3. The viscosity (323.15 K) was 15.8 ± 0.65 mPa·s and the mass density (323.15 K) was 1493.33 ± 0.67 kg/m3.
Work on `CCO` [ethanol] yielded a viscosity (293.15 K) of 1.189 ± 0.048 mPa·s, a mass density (293.15 K) of 789.831 ± 0.12 kg/m3 and a viscosity (298.15 K) of 1.095 ± 0.044 mPa·s. It also gave a mass density (298.15 K) of 785.535 ± 0.13 kg/m3, a viscosity (303.15 K) of 1.003 ± 0.041 mPa·s and a mass density (303.15 K) of 781.22 ± 0.13 kg/m3. The viscosity (308.15 K) was 0.914 ± 0.037 mPa·s, the mass density (308.15 K) was 776.875 ± 0.13 kg/m3 and the viscosity (313.15 K) was 0.845 ± 0.034 mPa·s. The mass density (313.15 K) was 772.48 ± 0.13 kg/m3, the viscosity (318.15 K) was 0.765 ± 0.031 mPa·s and the mass density (318.15 K) was 768.042 ± 0.14 kg/m3. It also gave a viscosity (323.15 K) of 0.704 ± 0.029 mPa·s and a mass density (323.15 K) of 762.564 ± 0.14 kg/m3.
